Source: patent publication US20150031996A1, “SEMICONDUCTING POLYMER NANOPARTICLES AS PHOTOACOUSTIC MOLECULAR IMAGING PROBES” (The Board of Trustees of the Leland Stanford Junior …, priority 2013, published 2015)

Experiment: Kinetic study of ROS-mediated degradation of IR775S (fluorescence at 800 nm)
Format: physicochemical
Conditions: presence of peroxynitrite (ONOO^−) and hypochlorite (ClO^−), 2 μM, 1×PBS pH=7.4
Method: FIGS. 26A and 26B illustrate a kinetic study of ROS-mediated degradation of 1R7755 by detecting its fluorescence decrease at 800 nm after addition of ROS.
FIG. 26B illustrates a time course of the fluorescence of 1R775S at 800 nm after addition of indicated ROS (FIG. 26B top: ONOO^−, ClO^−; FIG. 26B bottom: ^1O2 and H2O2) in 1×PBS (pH=7.4). [1R775]=1 μg/mL. [ROS]=2 μM.

Compound: CN1C(=CC=C2CCCC(C=CC3=[N+](C)c4ccccc4C3(C)C)=C2SCCC(=O)O)C(C)(C)c2ccccc21.[O-][Cl+3]([O-])([O-])[O-] [1R775S, 2-[4′-(β-carboxyethylthio)-7′-(1″,3″,3″-trimethylindolenine)-3′,5′-trimethyleneheptatrien-1-yl]-1,3,3-trimethylindolenium perchlorate]
- degradation by ROS: nearly instant degradation
